Source: patent publication US6506876B1, “LTA4 hydrolase inhibitor pharmaceutical compositions and methods of use” (G.D. Searle & Co., priority 1994, dated 2003)
Counter-ions that a name gives are not always drawn.

molecular target: T1, LTA4 hydrolase (Homo sapiens, UniProt P09960); experiment: not given; settings: background statement; cited from earlier work
T1 sequence (P09960 1-611): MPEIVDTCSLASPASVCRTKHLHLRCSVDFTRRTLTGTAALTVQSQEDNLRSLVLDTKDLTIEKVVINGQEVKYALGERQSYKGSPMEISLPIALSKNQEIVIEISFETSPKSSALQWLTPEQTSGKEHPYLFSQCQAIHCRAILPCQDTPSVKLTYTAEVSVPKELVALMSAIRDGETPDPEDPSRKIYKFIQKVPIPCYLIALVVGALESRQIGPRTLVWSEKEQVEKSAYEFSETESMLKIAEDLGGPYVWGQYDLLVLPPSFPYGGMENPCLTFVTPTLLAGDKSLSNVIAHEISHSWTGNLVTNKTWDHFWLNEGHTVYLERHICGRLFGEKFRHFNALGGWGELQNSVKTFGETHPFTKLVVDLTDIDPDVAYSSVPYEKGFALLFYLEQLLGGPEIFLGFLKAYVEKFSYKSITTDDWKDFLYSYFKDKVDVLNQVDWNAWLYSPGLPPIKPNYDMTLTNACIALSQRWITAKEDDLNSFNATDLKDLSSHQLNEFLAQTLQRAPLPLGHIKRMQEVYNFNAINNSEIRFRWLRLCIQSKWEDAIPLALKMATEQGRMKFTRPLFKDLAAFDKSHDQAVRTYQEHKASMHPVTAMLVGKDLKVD

| Compound | LTA4 hydrolase inhibitory activity |
| --- | --- |
| CC(C)C[C@H](NC(=O)[C@@H](O)[C@H](N)Cc1ccccc1)C(=O)O [bestatin] | exhibit LTA4 hydrolase inhibitory activity |
| C[C@H](CS)C(=O)N1CCC[C@H]1C(=O)O [captopril] | exhibit LTA4 hydrolase inhibitory activity |

test system: not given; experiment: not given; settings: not given

| melting point [°C] | Compound |
| --- | --- |
| 165 to 169 | O=C(O)[C@@H]1CCCN1CCCOc1ccc(Cc2ccccc2)cc1 [Example 430] |
| 165 to 167 | O=C(O)CCNCCCOc1ccc(Cc2ccccc2)cc1 [Example 431] |
| 140 to 141 | O=C(O)CCNCCCCOc1ccc(Cc2ccccc2)cc1 [Example 433] |
| 132 to 134 | NC(=O)NC1CCN(CCOc2ccc(Cc3ccccc3)cc2)C1 (stereo not shown) [Example 453] |
| 37 to 38 | C1=CC2CC1CN2CCOc1ccc(Cc2ccccc2)cc1 (stereo not shown) [Example 497] |

More lines, now with the values behind:

| Compound | melting point [°C] |
| --- | --- |
| c1ccc(Oc2ccc(NCCN3CCCC3)cc2)cc1 (as salt: HCl) [Example 71, N-(4-phenoxyphenyl)-1-pyrrolidine ethanamine, monohydrochloride] | 202 to 202.5 |
| Cl.c1ccc(Cc2ccc(SCCN3CCCC3)cc2)cc1 [Example 68, 1-[2-[4-(phenylmethyl)phenylthio]ethyl]pyrrolidine, monohydrochloride] | 137 to 139 |
| OCCOc1ccc(Oc2ccc(F)cc2)cc1 [Example 161] | 78 to 79 |
| Oc1ccc(OCCN2CCCC2)cc1 [Example 199] | 113 to 115 |
| CN(CCCOc1ccc(Cc2ccccc2)cc1)CCC(=O)O [Example 434] | 113 to 116 |

test system: LTB4 production in mouse blood (LTA4 hydrolase); experiment: Ex vivo LTB4 production by calcium ionophore stimulated mouse blood after oral dosing; assay type: in vivo; settings: Mus musculus, po, 1 h, read-out: Murine Ex Vivo LTB4 Inhibition % I LTB4
Summary of the method: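 Male outbred mice dosed by oral gavage, 10 mg/kg (some at 50 mg/kg) in PBS with 2% DMSO and 1% Tween 80; heparinised blood taken at 60 min, calcium ionophore-stimulated 10 minutes at 37° C. LTB4 and thromboxane by ELISA; % inhibition against vehicle-dosed animals.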

| Compound | inhibition in vivo at 10 mg/kg [%] |
| --- | --- |
| [O-][S+](CCN1CCCC1)c1ccc(Cc2ccccc2)cc1 (stereo not shown) [Example 69, 1-[2-[4-(phenylmethyl)phenylsulfinyl]ethyl]pyrrolidine, monohydrochloride] | 13 |
| CCOC(=O)C1CCN(CCOc2ccc(Cc3ccccc3)cc2)CC1 [Example 245] | 97 |
| COC(=O)C1CC2CCC(C1)N2CC1Cc2cc(Cc3ccccc3)ccc2O1 (stereo not shown) [Example 283] | 90 |
| CN(CCCOc1ccc(Cc2ccccc2)cc1)CCC(=O)O [Example 434] | 100 |

same assay, conditions: Mus musculus, po, 1 h; read-out: Murine Ex Vivo LTB4 Inhibition % I LTB4

| Compound | inhibition in vivo at 10 mg/kg [%] |
| --- | --- |
| c1ccc(Cc2ccc3c(c2)CC(Cn2cnc4cnccc42)O3)cc1 (stereo not shown) [358 B] | 33 |
| c1ccc(Cc2ccc3c(c2)CC(Cn2ccc4ncnc-4c2)O3)cc1 (stereo not shown) [358 C] | 13 |

same assay, conditions: mouse, oral gavage, 1 hour after administration of 10 mg/kg; read-out: Murine Ex Vivo LTB4 Inhibition % I LTB4

| Compound | inhibition in vivo at 10 mg/kg [%] |
| --- | --- |
| c1ccc(Cc2ccc(OCCn3cnc4cnccc43)cc2)cc1 [340 B] | 64 |
| c1ccc(Oc2ccc(OCCCn3cnc4cnccc43)cc2)cc1 [351 B] | 71 |
| CCOC(=O)CCNCCCOc1ccc(Cc2ccccc2)cc1 [Example 265] | 54 |
| CCOC(=O)CCNCCCCOc1ccc(Cc2ccccc2)cc1 [Example 272] | 97 |
| NC(=O)C1CCN(CC2Cc3cc(Cc4ccccc4)ccc3O2)CC1 (stereo not shown) [Example 281] | 83 |
| CCOC(=O)CNCCCCOc1ccc(Cc2ccccc2)cc1 [Example 320] | 85 |
| CCOC(=O)CNCCCCCOc1ccc(Cc2ccccc2)cc1 [Example 321] | 87 |
| COC(=O)CCNCCOc1ccc(Cc2ccccc2)cc1 [Example 324] | 62 |
| COC(=O)CCN(C)CCCOc1ccc(Cc2cccs2)cc1 [Example 331] | 97 |
| c1ccc(Cc2ccc(OCCN3CCCCCCC3)cc2)cc1 [Example 398] | 0 |
| NC(=O)C1CCN(CCOc2ccc(Cc3ccccc3)cc2)C1 (stereo not shown) [Example 425] | 60 |
| O=C(O)[C@@H]1CCCN1CCCOc1ccc(Cc2ccccc2)cc1 [Example 430] | 37 |
| O=C(O)CCNCCCOc1ccc(Cc2ccccc2)cc1 [Example 431] | 71 |
| O=C(O)CCNCCCCOc1ccc(Cc2ccccc2)cc1 [Example 433] | 71 |
| NC1CCN(CCOc2ccc(Cc3ccccc3)cc2)C1 (stereo not shown) [Example 452] | 57 |
| NC(=O)NC1CCN(CCOc2ccc(Cc3ccccc3)cc2)C1 (stereo not shown) [Example 453] | 92 |
| NC(=O)NC1CCN(CCOc2ccc(Cc3ccccc3)cc2)CC1 [Example 456] | 72 |
| NC(=O)N1CCN(CCOc2ccc(Cc3ccccc3)cc2)CC1 [Example 459] | 44 |
| NCCOc1ccc(Cc2ccccc2)cc1 [Example 496] | 54 |
| C1=CC2CC1CN2CCOc1ccc(Cc2ccccc2)cc1 (stereo not shown) [Example 497] | 45 |

molecular target: T2, recombinant human LTA4 hydrolase (rhLTA4H) (Homo sapiens, UniProt P09960); experiment: Recombinant human LTA4 hydrolase assay for LTA4 hydrolase inhibitor activity; settings: Recombinant Human LTA4 Hydrolase Assay IC50 LTA4H, recombinant hLTA4H
T2 sequence (P09960 1-611): T1 sequence (P09960 1-611)

| IC50 [nM] | Compound |
| --- | --- |
| 220 | c1ccc(Cc2ccc(OCCN3CCCCCCC3)cc2)cc1 [Example 398] |
| 110 | O=C(O)[C@@H]1CCCN1CCCOc1ccc(Cc2ccccc2)cc1 [Example 430] |
| 10 | NCCOc1ccc(Cc2ccccc2)cc1 [Example 496] |
| 200 | C1=CC2CC1CN2CCOc1ccc(Cc2ccccc2)cc1 (stereo not shown) [Example 497] |

Second part, the compound before the results:

| Compound | IC50 [nM] |
| --- | --- |
| c1ccc(Cc2ccc(OCCn3cnc4cnccc43)cc2)cc1 [340 B] | 120 |
| c1ccc(Oc2ccc(OCCCn3cnc4cnccc43)cc2)cc1 [351 B] | 290 |
| c1ccc(Cc2ccc3c(c2)CC(Cn2cnc4cnccc42)O3)cc1 (stereo not shown) [358 B] | 410 |
| c1ccc(Cc2ccc3c(c2)CC(Cn2ccc4ncnc-4c2)O3)cc1 (stereo not shown) [358 C] | 87 |
| [O-][S+](CCN1CCCC1)c1ccc(Cc2ccccc2)cc1 (stereo not shown) [Example 69, 1-[2-[4-(phenylmethyl)phenylsulfinyl]ethyl]pyrrolidine, monohydrochloride] | 6520 |
| CCOC(=O)C1CCN(CCOc2ccc(Cc3ccccc3)cc2)CC1 [Example 245] | 1770 |
| CCOC(=O)CCNCCCOc1ccc(Cc2ccccc2)cc1 [Example 265] | 77 |
| NC(=O)C1CCN(CC2Cc3cc(Cc4ccccc4)ccc3O2)CC1 (stereo not shown) [Example 281] | 93 |
| COC(=O)C1CC2CCC(C1)N2CC1Cc2cc(Cc3ccccc3)ccc2O1 (stereo not shown) [Example 283] | 19 |

test system: LTB4 production in human whole blood (LTA4 hydrolase); experiment: LTB4 production by calcium ionophore stimulated human blood; assay type: cell-based; settings: Homo sapiens, human whole blood, A23187; read-out: Inhibition of Calcium Ionophore-Induced LTB4 Production in Human Blood IC50 HWB
Method: LTB4 and Thromboxane Production by Calcium Ionophore Stimulated Human Blood for LTA4 Hydrolase Inhibitor Activity
One or more concentrations of the leukotriene A4 hydrolase inhibitor compounds being tested were prepared (diluted in DMSO) and 2 μl added and gently mixed with the diluted whole blood. After incubating for 15 minutes at 37° C. in a humidified incubator, calcium ionophore A23187 (Sigma Chemical Co., St. Louis, Mo.) was added to a final concentration of 20 mcg/ml and the incubation continued under the same conditions for an additional 10 minutes to allow LTB4 formation. The reaction was terminated by centrifugation (833 g, 10 minutes at 4° C.) and supernatant were analyzed for LTB4 and thromboxane by commercially available enzyme-linked immunoassays (Caymen Chemical Co., Ann Arbor, Mich.) according to the manufacturer's instructions. The IC50 of each test compound was determined from the amount of inhibition of LTB4 production as compared to an essentially identical assay in which no inhibitor compound was present.

| IC50 [nM] | Compound |
| --- | --- |
| 470 | c1ccc(Cc2ccc(OCCN3CCCCCCC3)cc2)cc1 [Example 398] |
| 360 | NC(=O)C1CCN(CCOc2ccc(Cc3ccccc3)cc2)C1 (stereo not shown) [Example 425] |
| 280 | O=C(O)CCNCCCOc1ccc(Cc2ccccc2)cc1 [Example 431] |
| 290 | NC1CCN(CCOc2ccc(Cc3ccccc3)cc2)C1 (stereo not shown) [Example 452] |
| 350 | NC(=O)NC1CCN(CCOc2ccc(Cc3ccccc3)cc2)C1 (stereo not shown) [Example 453] |
| 440 | NC(=O)NC1CCN(CCOc2ccc(Cc3ccccc3)cc2)CC1 [Example 456] |
| 2400 | NC(=O)N1CCN(CCOc2ccc(Cc3ccccc3)cc2)CC1 [Example 459] |
| 280 | NCCOc1ccc(Cc2ccccc2)cc1 [Example 496] |

Second part, the compound before the results:

| Compound | IC50 [nM] |
| --- | --- |
| c1ccc(Cc2ccc(OCCn3cnc4cnccc43)cc2)cc1 [340 B] | 330 |
| c1ccc(Oc2ccc(OCCCn3cnc4cnccc43)cc2)cc1 [351 B] | 2080 |
| CCOC(=O)CCNCCCOc1ccc(Cc2ccccc2)cc1 [Example 265] | 450 |
| CCOC(=O)CCNCCCCOc1ccc(Cc2ccccc2)cc1 [Example 272] | 76 |
| NC(=O)C1CCN(CC2Cc3cc(Cc4ccccc4)ccc3O2)CC1 (stereo not shown) [Example 281] | 169 |
| CCOC(=O)CNCCCCOc1ccc(Cc2ccccc2)cc1 [Example 320] | 354 |
| CCOC(=O)CNCCCCCOc1ccc(Cc2ccccc2)cc1 [Example 321] | 421 |
| COC(=O)CCNCCOc1ccc(Cc2ccccc2)cc1 [Example 324] | 586 |
| COC(=O)CCN(C)CCCOc1ccc(Cc2cccs2)cc1 [Example 331] | 95 |

same assay, conditions: Homo sapiens, read-out: Inhibition of Calcium Ionophore-Induced LTB4 Production in Human Blood IC50 HWB

| Compound | IC50 [nM] |
| --- | --- |
| [O-][S+](CCN1CCCC1)c1ccc(Cc2ccccc2)cc1 (stereo not shown) [Example 69, 1-[2-[4-(phenylmethyl)phenylsulfinyl]ethyl]pyrrolidine, monohydrochloride] | 11800 |
| CCOC(=O)C1CCN(CCOc2ccc(Cc3ccccc3)cc2)CC1 [Example 245] | 147 |
| COC(=O)C1CC2CCC(C1)N2CC1Cc2cc(Cc3ccccc3)ccc2O1 (stereo not shown) [Example 283] | 90 |

same assay, conditions: human whole blood, A23187; read-out: Inhibition of Calcium Ionophore-Induced LTB4 Production in Human Blood IC50 HWB

| Compound | IC50 [nM] |
| --- | --- |
| c1ccc(Cc2ccc3c(c2)CC(Cn2cnc4cnccc42)O3)cc1 (stereo not shown) [358 B] | 640 |
| c1ccc(Cc2ccc3c(c2)CC(Cn2ccc4ncnc-4c2)O3)cc1 (stereo not shown) [358 C] | 590 |
